Laboratory results: PubChem BioAssay (NCI)
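How tested: cells in 96-well plates exposed to compound for 48 hours at five concentrations. GI50 is the concentration that inhibits growth by half. TGI: total growth inhibition.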

Assays:
Assay in all cases: inhibition of tumour cell growth, NCI panel, 48 h
[1] = system: NCI/ADR-RES ovarian
[2] = system: MOLT-4 leukemia
[3] = system: U251 CNS
[4] = system: HL-60(TB) leukemia
[5] = system: CCRF-CEM leukemia
[6] = system: OVCAR-8 ovarian
[7] = system: TK-10 renal
[8] = system: MCF7 breast
[9] = system: COLO 205 colon
[10] = system: SK-OV-3 ovarian

Row | Compound | TGI [1] [µM] | TGI [2] [µM] | TGI [3] [µM] | TGI [4] [µM] | TGI [5] [µM] | TGI [6] [µM] | TGI [7] [µM] | TGI [8] [µM] | TGI [9] [µM] | TGI [10] [µM] | GI50 [2] [µM] | GI50 [3] [µM] | GI50 [4] [µM] | GI50 [5] [µM] | GI50 [6] [µM] | GI50 [7] [µM] | GI50 [8] [µM] | GI50 [10] [µM] | GI50 [9] [µM] | GI50 [1] [µM]
1 | CC(C)C(OC(=O)c1ccc(NCc2cc(O)ccc2O)cc1)C(C)C | 6.14 | 0.956 | 2.85 | 0.484 | 0.589 | 3.77 | 3.62 | 16.4 | 5.56 |  |  |  |  |  |  |  |  |  |  | 
2 | CCCC(=O)NC(Nc1ccc(S(=O)(=O)Nc2nc(C)cc(C)n2)cc1)(C(F)(F)F)C(F)(F)F | > 100 | > 100 | > 100 | > 100 | > 100 | > 100 | > 100 |  | > 100 | > 100 |  |  |  |  |  |  |  |  |  | 
3 | O=c1cc(N2CCN(c3cc(=O)n4ccccc4n3)CC2)oc2ccccc12 | > 100 | > 100 | > 100 |  | > 100 | 96.9 | > 100 | > 100 | > 100 | > 100 |  |  |  |  |  |  |  |  |  | 
4 | COc1cc2c(cc1OC)C(Cl)C(c1ccc(Cl)c(Cl)c1)=C2Cl (stereo unspecified) |  | 12.3 | 16.4 | 9.47 | 16.7 | 19.5 | 48.7 |  | 28 | 40.5 |  |  |  |  |  |  |  |  |  | 
5 | COc1ccccc1NC(=O)CC(=O)N1N=C(C)C(N=Nc2ccc(C(=O)O)cc2)C1=O (stereo unspecified) | > 100 |  | > 100 | > 100 | > 100 | > 100 | > 100 | > 100 | > 100 |  |  |  |  |  |  |  |  |  |  | 
6 | CCOC(=O)Cc1cc(OC)c(OC)cc1/C(Cl)=C(\C=O)c1ccc(OC)c(OC)c1 |  | 42.1 | 33.1 | 40.9 |  | 80.8 | 90.8 |  | 50.6 | 86 |  |  |  |  |  |  |  |  |  | 
7 | c1ccc2c(c1)CCc1c-2n(CCN2CCOCC2)c2ccccc12 | > 100 | > 100 | > 100 |  | 61.5 | > 100 | > 100 | > 100 | > 100 | 82.9 |  |  |  |  |  |  |  |  |  | 
8 | COc1ccc2nc3cc([N+](=O)[O-])ccc3c(Nc3ccc(S(=O)(=O)NC(C)=O)cc3)c2c1 |  | > 100 | > 100 | > 100 | > 100 |  | > 100 | > 100 | > 100 | > 100 |  |  |  |  |  |  |  |  |  | 
9 | CSc1n[nH]c(N)c1C(=O)Nc1ccc(C)cc1 |  | > 100 | > 100 | > 100 | > 100 |  | > 100 | > 100 | > 100 | > 100 |  |  |  |  |  |  |  |  |  | 
10 | OC(CCNCc1ccccc1)c1ccc2ccccc2c1 (stereo unspecified) | 49.4 | 84.8 | 30.6 | 43.2 | > 100 | 45.9 | 33.6 | 54.3 | 47.2 |  |  |  |  |  |  |  |  |  |  | 
11 | COc1cc2cc[n+]3c(C)c4cc(OC)c(OC)cc4c([O-])c3c2cc1OC |  | > 100 | > 100 | 48.8 | > 100 | > 100 | > 100 |  | 48.3 | > 100 |  |  |  |  |  |  |  |  |  | 
12 | NNC(=O)Cn1c2ccc(Br)cc2c2nc3ccccc3nc21 | > 100 | > 100 | > 100 |  |  | > 100 | > 100 | > 100 | > 100 | > 100 |  |  |  |  |  |  |  |  |  | 
13 | COc1cc(/C=C2/C[C@H]3[C@@H]4CC=C5C[C@@H](OC(C)=O)CC[C@]5(C)[C@H]4CC[C@]3(C)NC2=O)cc(OC)c1OC | 54.4 | 91.4 | 46.5 |  | > 100 | > 100 | 83.3 | > 100 | > 100 | 60.3 |  |  |  |  |  |  |  |  |  | 
14 | C/C(Nc1ccc(F)cc1)=C1/CCOC1=O | > 100 | > 100 | > 100 | > 100 | > 100 | > 100 | > 100 |  | 47 |  |  |  |  |  |  |  |  |  |  | 
15 | O=C1C(=O)c2ccccc2C(O)=C1CCCc1ccc(Oc2ccccc2)cc1 |  | > 100 | > 100 | 47.9 | > 100 | > 100 | > 100 |  | 32.1 | > 100 |  |  |  |  |  |  |  |  |  | 
16 | COc1ccc(-c2cc(-c3ccc(Nc4ccnc5cc(Cl)ccc45)cc3)[nH]c(=O)c2C#N)c2ccccc12 | > 100 | 6.17 |  | 6.04 | > 100 | 5.41 | 29.7 |  | 6.89 | 43.7 |  |  |  |  |  |  |  |  |  | 
17 | CCOC(=O)C(NC(=O)CC)(Nc1cc(C)on1)C(F)(F)F (stereo unspecified) | > 100 | > 100 | > 100 | > 100 | > 100 | > 100 | > 100 |  | > 100 |  |  |  |  |  |  |  |  |  |  | 

Row | Compound | TGI [1] [µM] | TGI [2] [µM] | TGI [3] [µM] | TGI [4] [µM] | TGI [5] [µM] | TGI [6] [µM] | TGI [7] [µM] | TGI [8] [µM] | TGI [9] [µM] | TGI [10] [µM] | GI50 [2] [µM] | GI50 [3] [µM] | GI50 [4] [µM] | GI50 [5] [µM] | GI50 [6] [µM] | GI50 [7] [µM] | GI50 [8] [µM] | GI50 [10] [µM] | GI50 [9] [µM] | GI50 [1] [µM]
18 | CC1(c2ccc[n+](Cc3ccccc3)c2)OCCO1 |  | > 100 | > 100 | > 100 | > 100 | > 100 | > 100 |  | > 100 | > 100 |  |  |  |  |  |  |  |  |  | 
19 | C[C@@H]1CC[C@H]2C(C(O)CCCCC(O)C3=C(C(F)(F)F)O[C@@H]4O[C@@]5(C)CC[C@H]6[C@H](C)CC[C@@H]3[C@@]46OO5)=C(C(F)(F)F)O[C@@H]3O[C@@]4(C)CC[C@@H]1[C@]32OO4 (stereo partly specified) |  | > 100 | > 100 | > 100 | > 100 | > 100 | > 100 | > 100 | 29.4 | > 100 | 6.35 | 19.8 | 6.44 | 14.3 | 11.3 | > 100 | 5.01 | > 100 | 8.04 | 
20 | CCOC(=O)c1cc2c(C(=O)c3ccc([N+](=O)[O-])cc3)c(C(C)=O)ccc2[nH]1 |  | > 100 | 32.3 | > 100 | > 100 |  | > 100 | > 100 | > 100 | 51.3 |  |  |  |  |  |  |  |  |  | 
21 | CSC1=N/C(=C\c2ccco2)C(=O)N1CN1CCOCC1 | > 100 | > 96.2 | > 100 |  | > 90.3 | > 100 | > 100 | > 100 | > 100 | > 100 |  |  |  |  |  |  |  |  |  | 
22 | CCOP(=O)(OCC)C1CC(n2cc(C)c(=O)[nH]c2=O)OC1CO (stereo unspecified) |  | > 100 | > 100 | > 100 | > 100 | > 100 | > 100 | > 100 |  |  |  |  |  |  |  |  |  |  |  | 
23 | COc1ccc2c(c1)c(CC(=O)O)c(C)n2C(=O)c1ccc(Cl)cc1 | > 100 | > 100 | > 100 | > 100 | > 100 | > 100 | > 100 | > 100 | > 100 |  |  |  |  |  |  |  |  |  |  | 
24 | Cc1c(NC(=O)CSC(=S)N2CCN(Cc3ccccc3)CC2)c(=O)n(-c2ccccc2)n1C | > 100 | > 100 | > 100 |  | > 100 | > 100 | > 100 | > 100 | > 100 | > 100 |  |  |  |  |  |  |  |  |  | 
25 | CCN(C(=S)N[C@H](C(=O)N[C@@H](C)C(=O)OC)C(C)C)c1ccccc1 | > 100 | > 100 | > 100 |  | > 100 | > 100 | > 100 | > 100 | > 100 | > 100 |  |  |  |  |  |  |  |  |  | 
26 | Cc1ccc2c(c1C)C(=O)/C(=C/c1ccccc1C(=O)O)C2 | > 100 | > 100 | > 100 | > 100 | > 100 | > 100 | > 100 | > 100 | > 100 |  |  |  |  |  |  |  |  |  |  | 
27 | Cc1nc2c(sc(=S)n2-c2ccccc2)c(=O)[nH]1 |  | > 100 | > 100 | > 100 | > 100 | > 100 | > 100 |  | > 100 | > 100 |  |  |  |  |  |  |  |  |  | 
28 | COc1ccc(C(=O)Cc2ccc(Br)cc2)cc1OC |  | > 100 | > 100 | > 100 | > 100 | > 100 | > 100 |  |  | > 100 |  |  |  |  |  |  |  |  |  | 
29 | CC1(C)[C@H]2CC[C@]1(C)[C@H](OC(=O)NNC(=O)O[C@@H]1C[C@@H]3CC[C@@]1(C)C3(C)C)C2 |  | 27.3 | 62.9 | 62.7 | 76.6 |  | 38.6 | 26.4 | 25.6 | 28.6 |  |  |  |  |  |  |  |  |  | 
30 | CCOC(=O)c1c(N2CCCC2)ncn(Cc2ccccc2)c1=S | > 100 | > 100 | > 100 | > 100 | > 100 | > 100 | > 100 |  | > 100 | > 100 |  |  |  |  |  |  |  |  |  | 
31 | O=C1/C(=N\S(=O)(=O)c2ccccc2)C([n+]2ccc(Cc3ccccc3)cc2)=C([O-])c2ccccc21 | 18.3 | 4.49 | 5.48 |  | > 100 | 8.06 | 6.2 | 2.12 | 1.14 | 18.5 |  |  |  |  |  |  |  |  |  | 
32 | Cc1cc(N2CCCC2)nc(N(CCNc2ccnc3cc(Cl)ccc23)Cc2ccco2)n1 | 79.6 |  | 21.4 |  | > 100 | > 100 | 31.3 | > 100 | 4.38 | 38.8 |  | 3.15 |  | 2.85 | 4.35 | 5.46 | 2.91 | 7.16 | 1.8 | 2.99
33 | COc1ccc(C2N(NC(=O)c3ccncc3)C(=O)CS2(=O)=O)cc1F (stereo unspecified) |  | > 100 | > 100 | > 100 | > 100 |  | > 100 |  | > 100 | > 100 |  |  |  |  |  |  |  |  |  | 
